Laboratory results taken from patent US20220064672A1, “ENGINEERED ONCOLYTIC VIRUSES EXPRESSING PD-L1 INHIBITORS AND USES THEREOF” (priority 2020, published 2022).
Read-outs that look alike come from different tables or passages of the source.

T1: H-2D^b (Mus musculus, UniProt P01899)
T1 sequence (P01899 25-362): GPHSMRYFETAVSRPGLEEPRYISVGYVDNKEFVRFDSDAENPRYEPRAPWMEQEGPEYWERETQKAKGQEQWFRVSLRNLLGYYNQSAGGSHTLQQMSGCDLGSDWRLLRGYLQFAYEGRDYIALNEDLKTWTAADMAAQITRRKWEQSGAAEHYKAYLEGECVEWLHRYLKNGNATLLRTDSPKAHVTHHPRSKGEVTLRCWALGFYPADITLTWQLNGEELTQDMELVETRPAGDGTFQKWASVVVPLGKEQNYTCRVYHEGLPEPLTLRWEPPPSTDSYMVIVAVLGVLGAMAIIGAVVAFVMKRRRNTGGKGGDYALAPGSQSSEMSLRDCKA
T1 sequence (P01887 21-119 partner): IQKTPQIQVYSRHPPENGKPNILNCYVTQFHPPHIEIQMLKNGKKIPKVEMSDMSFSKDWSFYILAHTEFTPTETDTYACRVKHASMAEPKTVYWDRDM

T2: H-2K^b (Mus musculus, UniProt P01901)
T2 sequence (P01901 22-369): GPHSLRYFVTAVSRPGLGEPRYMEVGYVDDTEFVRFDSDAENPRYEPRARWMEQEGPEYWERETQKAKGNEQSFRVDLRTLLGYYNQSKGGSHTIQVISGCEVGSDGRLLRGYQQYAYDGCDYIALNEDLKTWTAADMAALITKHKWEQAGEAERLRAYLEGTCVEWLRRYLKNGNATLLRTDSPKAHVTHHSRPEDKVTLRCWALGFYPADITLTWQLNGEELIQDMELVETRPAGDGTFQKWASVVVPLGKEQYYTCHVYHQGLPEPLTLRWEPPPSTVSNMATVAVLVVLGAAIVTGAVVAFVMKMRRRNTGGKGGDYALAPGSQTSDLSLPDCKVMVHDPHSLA
T2 sequence (P01887 21-119 partner): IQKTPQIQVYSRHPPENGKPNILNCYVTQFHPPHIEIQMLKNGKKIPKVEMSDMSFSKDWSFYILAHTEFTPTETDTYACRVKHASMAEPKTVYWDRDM


Tests used:
[1] = biological target: T1, H-2D^b; details: MHC allele H-2D^b, cited from earlier work
[2] = biological target: T2, H-2K^b; details: MHC allele H-2K^b, cited from earlier work
[3] = biological target: PD-L1 protein (Abcam, ab130039) (UniProt Q9EP73); test: competitive ELISA: PD-L1-coated plate, displacement of mouse PD-1-biotin
[4] = test system: K562/PD-L1, U251/PD-L1, H226/PD-L1 target cells; test: ADCC assay (Jurkat effector cells); format: cell-based, human; details: any of the PD-L1-expressed target cell lines
Experimental: ADCC assay: Purified ihPDL1 was analyzed with ADCC kit according to the manufacturer's instruction (Promega, Madison, Wis.).

[5] = test system: T-cells from healthy PBMCs with allogeneic mature DCs; format: cell-based, human; details: purified ihPDL1 at 0.01 μg/mL, 0.1 μg/mL, or 1 μg/mL
[6] = biological target: T3, PD-L1^+ tumor cells (Homo sapiens, UniProt Q9NZQ7); format: cell-based; details: PD-L1-transduced 293T or K562, IFN-γ pre-stimulated H226 or U251
T3 construct: endogenous in cells; host or cells: IFN-γ-stimulated U251 or H226

[7] = biological target: T4, PD-1/PD-L1 interaction (Homo sapiens, UniProt Q9NZQ7); format: binding; details: purified ihPDL1 at the tested concentrations
T4 construct: purchased BPS Bioscience

[8] = biological target: PD-L1 (Homo sapiens, UniProt Q9NZQ7); test: Surface plasmon resonance (SPR)-binding assay; details: immobilized PD-L1-His tag protein
Experimental: Surface plasmon resonance (SPR)-binding assays: The assays were carried out at 25° C. using a Biacore T100 (USC NanoBiophysics Center). CMS sensor chips were activated by a 7 min injection of a 1:1 mixture of N-hydroxysuccinimide and 1-ethyl-3-(3-dimethylaminopropyl) carbodiimide hydrochloride at a flow rate of 10 μL/min. The PD-L1-His tag protein was prepared at a concentration of 10 μg/mL in 10 mM acetate buffer, pH 4.0, and immobilized to the sensor chips by amine linkage, with the typical immobilization levels being 100 response units. For blocking sensor chips, 70 μL of 1M ethanolamine-HCl buffer, pH 8.5, was injected and the chips were further washed with 10 μL of 10 mM glycine-HCl buffer, pH 1.5. For analyzing the binding and equilibrium affinity of ihPDL1 or a-PD-L1 antibody (biolegend, cat 329702), 5 serial dilutions of ihPDL1 starting from 200 μg/mL, or 6 serial dilutions of α-PD-L1 antibody starting from 100 μg/mL were injected at a flow rate of 30 μL/min over the sensor chips coupled with PD-L1 protein. The data sets were analyzed using a model for 1:1 binding.

[9] = biological target: PD-L1 protein (Abcam, ab130039) (UniProt Q9EP73 19-238); test: competitive ELISA: PD-L1-coated plate, displacement of mouse PD-1-biotin
[10] = biological target: T5, PD-L1 on MC38 tumor cells (Mus musculus, UniProt Q9EP73); format: cell-based
T5 construct: endogenous in cells; host or cells: MC38 (wild type, IFN-γ stimulated, or PD-L1 shRNA knock-down as negative control)

[11] = test system: PD-1+ CD8+ T cells; details: purified iPDL1 in comparison to control IgG
Description: (FIG. 7I) PD-1+ CD8+ T cells isolated from VV-treated MC38 tumors were cocultured with MC38 cells in the presence of purified iPDL1 or IgG. IFN-γ+ frequencies of PD-1+ T cells were shown from one of two independent experiments.

[12] = biological target: T6, PD-L1 (Mus musculus, UniProt Q9EP73); format: in vivo; details: MC38, untreated distant tumors
T6 construct: from tissue; host or cells: single-cell suspensions of treated and distant MC38 tumours from C57BL/6 mice

[13] = mutant peptide, read-out: IC50 (mutant)
[14] = wild type peptide, read-out: IC50 (Wild Type)

T5 sequence (Q9EP73 19-290): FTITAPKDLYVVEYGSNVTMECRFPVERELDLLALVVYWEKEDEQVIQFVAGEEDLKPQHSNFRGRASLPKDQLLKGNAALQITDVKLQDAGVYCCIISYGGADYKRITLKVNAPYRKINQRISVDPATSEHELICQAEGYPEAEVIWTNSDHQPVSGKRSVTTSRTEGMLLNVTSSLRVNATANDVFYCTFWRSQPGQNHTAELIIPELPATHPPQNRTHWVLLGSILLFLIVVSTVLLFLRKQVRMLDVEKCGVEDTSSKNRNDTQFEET
T6 sequence (Q9EP73 19-290): as above
T3 sequence (Q9NZQ7 19-290): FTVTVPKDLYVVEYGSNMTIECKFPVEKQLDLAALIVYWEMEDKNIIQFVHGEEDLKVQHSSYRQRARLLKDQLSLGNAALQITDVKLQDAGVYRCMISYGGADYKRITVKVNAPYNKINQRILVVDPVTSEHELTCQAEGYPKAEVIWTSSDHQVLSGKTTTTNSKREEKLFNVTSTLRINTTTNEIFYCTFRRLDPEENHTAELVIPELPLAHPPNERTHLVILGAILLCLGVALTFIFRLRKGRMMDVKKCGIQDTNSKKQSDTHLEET
Chain of PD-L1 (Homo sapiens, UniProt Q9NZQ7) (Q9NZQ7 19-290): as above
T4 sequence (Q9NZQ7 19-238 limits assumed): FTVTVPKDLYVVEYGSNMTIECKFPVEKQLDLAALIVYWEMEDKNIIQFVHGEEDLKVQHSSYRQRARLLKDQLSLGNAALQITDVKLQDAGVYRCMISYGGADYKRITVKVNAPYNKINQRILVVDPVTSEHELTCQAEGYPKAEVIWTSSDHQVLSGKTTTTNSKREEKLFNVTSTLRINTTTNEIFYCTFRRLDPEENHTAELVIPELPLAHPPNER
Chain of PD-L1 protein (Abcam, ab130039) (UniProt Q9EP73) (Q9EP73 19-238 limits assumed): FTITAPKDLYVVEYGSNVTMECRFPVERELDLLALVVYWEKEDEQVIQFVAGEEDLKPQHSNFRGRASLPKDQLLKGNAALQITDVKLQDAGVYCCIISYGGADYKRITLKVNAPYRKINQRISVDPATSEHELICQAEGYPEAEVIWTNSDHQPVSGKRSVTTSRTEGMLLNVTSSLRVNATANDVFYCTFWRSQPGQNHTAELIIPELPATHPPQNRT
Chain of PD-L1 protein (Abcam, ab130039) (UniProt Q9EP73 19-238) (Q9EP73 19-238 limits assumed): as above

Molecule	IC50 [1, 13]	IC50 [1, 14]	further results
(S/I)MTQHLEPI [Pep7]	78 nM	29 nM	–
AALLNSAGL [Pepl, AALLNSA(G/V)L]	3 nM	52 nM	–
AQL(P/A)NDVVL [Pep2]	9 nM	100 nM	–
ASMTN(R/M)ELM [Pep4]	2 nM	3 nM	–
FMACNLLLV [Pep11, FM(A/S)CNLLLV]	79 nM	24 nM	–
MAPIDHTAM [Pep3, MAPIDHT(A/T)M]	30 nM	102 nM	–
MGGMNRRPI [Pep10, MG(G/V)MNRRPI]	77 nM	841 nM	–
SAIRSYQDV [Pep8, SAIRSYQ(D/Y)V]	35 nM	755 nM	–
SIIVFNLV [Pep5, SIIVFNL(V/L)]	–	–	IC50 [2, 13]: 8 nM; IC50 [2, 14]: 34 nM
SSP(D/Y)SLHYL [Pep6]	211 nM	685 nM	–
VSPVNDVDV [Pep9, VSPVND(V/L)DV]	44 nM	18 nM	–
anti-PD-L1 antibody control (Biolegend, 124301)	–	–	IC50 [3]: 4.53 nM
ihPDL1: soluble human PD-1 (extracellular) - IgG1 Fc fusion protein, human PD-L1 inhibitor, SEQ ID NO:52	–	–	concentration that significantly enhanced luc production in the Jurkat effector cells [4]: ≤ 10 ng/mL; T cell activation (IFN-γ level) in MLR [5]: equivalent activity to the commercial anti-PD-L1; binding of purified ihPDL1 to PD-L1^+ tumor cells [6]: bound to PD-L1^+ tumor cells; blocking the biotin-PD1 binding to PD-L1-coated wells [7]: equivalent activity to the commercial anti-PD-L1; binding to PD-L1 (SPR) [8]: specifically bind to PD-L1
iPDL1 (murine soluble PD-1 extracellular domain fused with IgG1 Fc) (Fc fusion, detection used anti-IgG2a-Fc / anti-mouse IgG; also called soluble PD-1-Fc; soluble PD-1-IgG Fc) LEVPNGPWRSLTFYPAWLTVSEGANATFTCSLSNWSEDLMLNWNRLSPSNQTEKQAAFCNGLSQPVQDARFQIIQLPNRHDFHMNILDTRRNDSGIYLCGAISLHPKAKIEESPGAELVVTERILETSTRYPSPSPKPEGRFQPRGPTIKPCPPCKCPAPNLLGGPSVFIFPPKIKDVLMISLSPIVTCVVVDVSEDDPDVQISWFVNNVEVHTAQTQTHREDYNSTLRVVSALPIQHQDWMSGKEFKCKVNNKDLPAPIERTISKPKGSVRAPQVYVLPPPEEEMTKKQVTLTCMVTDFMPEDIYVEWTNNGKTELNYKNTEPVLDSDGSYFMYSKLRVEKKNWVERNSYSCSVVHEGLHNHHTTKSFSRTPGK	–	–	IC50 [9]: 5.63 nM
iPDL1: murine soluble PD-1 extracellular domain fused with IgG1 Fc as a PD-L1 inhibitor, SEQ ID NO:2 (protein, Mouse) MWVRQVPWSFTWAVLQLSWQSGWLLEVPNGPWRSLTFYPAWLTVSEGANATFTCSLSNWSEDLMLNWNRLSPSNQTEKQAAFCNGLSQPVQDARFQIIQLPNRHDFHMNILDTRRNDSGIYLCGAISLHPKAKIEESPGAELVVTERILETSTRYPSPSPKPEGRFQPRGPTIKPCPPCKCPAPNLLGGPSVFIFPPKIKDVLMISLSPIVTCVVVDVSEDDPDVQISWFVNNVEVHTAQTQTHREDYNSTLRVVSALPIQHQDWMSGKEFKCKVNNKDLPAPIERTISKPKGSVRAPQVYVLPPPEEEMTKKQVTLTCMVTDFMPEDIYVEWTNNGKTELNYKNTEPVLDSDGSYFMYSKLRVEKKNWVERNSYSCSVVHEGLHNHHTTKSFSRTPGK	–	–	binding of purified protein to PD-L1+ tumor cells ([10]; 50 μg/mL, MC38 vs PD-L1-knocked down MC38, anti-IgG Fc staining): able to bind to PD-L1+ tumor cells, but not to PD-L1-knocked down tumor cells; binding of secreted iPDL1 to PD-L1 on tumor cells in cell culture ([10]; MC38 infected with VV-iPDL1/GM at MOI=0.5, anti-IgG Fc staining): bound to PD-L1 on the virus-infected (RFP positive) tumor cells, as well as uninfected (RFP negative) tumor cells; IFN-γ+ frequency of PD-1+ CD8+ T cells [11]: higher IFN-γ+ frequency of PD-1+ CD8+ T cells; binding of secreted iPDL1 to PD-L1 on CD45− cells in distant tumors [12]: also bound to PD-L1 on CD45− cells in untreated, distant tumors
